ChEMBL document CHEMBL1201862, “PubChem BioAssay data set” (2004)
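Dose response: 5 concentrations. Exposure: 48 h. Format: 96-well plates. Endpoint: linear interpolation; highest concentration if not reached. The concentration for 50% growth inhibition is given as GI50.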 The source made the active and inactive calls. Cut-off read from the data, not from the text of the source: active = GI50 up to about 1.1 µM and inactive = higher.

How the values were obtained:
Test in all cases: NCI anticancer screen, dose series, 48 h
[1] = system: 786-0
[2] = system: A549
[3] = system: HCC 2998
[4] = system: HCT-15
[5] = system: Hs-578T
[6] = system: IGROV-1
[7] = system: LOX IMVI
[8] = system: MOLT-4
[9] = system: Malme-3M
[10] = system: NCI-H23
[11] = system: NCI/ADR-RES
[12] = system: PC-3
[13] = system: RPMI-8226
[14] = system: SF-268
[15] = system: SK-OV-3
[16] = system: SN12C
[17] = system: SW-620
[18] = system: U-251
[19] = system: UACC-62
[20] = system: UO-31

Row | SMILES | GI50 [1] | GI50 [2] | GI50 [3] | GI50 [4] | GI50 [5] | GI50 [6] | GI50 [7] | GI50 [8] | GI50 [9] | GI50 [10] | GI50 [11] | GI50 [12] | GI50 [13] | GI50 [14] | GI50 [15] | GI50 [16] | GI50 [17] | GI50 [18] | GI50 [19] | GI50 [20]
1 | Clc1cccc(Cl)c1C1SCc2nc3ncccc3n21 (stereo not given) | > 100 µM (inactive) | > 100 µM (inactive) | > 100 µM (inactive) | > 100 µM | > 100 µM (inactive) | > 100 µM (inactive) | > 100 µM (inactive) | 61.8 µM (inactive) | 55.8 µM (inactive) | > 100 µM (inactive) | > 100 µM (inactive) | > 100 µM (inactive) | 80.4 µM (inactive) | > 100 µM (inactive) | > 100 µM (inactive) | > 100 µM (inactive) | > 100 µM (inactive) | > 100 µM (inactive) | > 100 µM (inactive) | > 100 µM (inactive)
2 | CC1OC(OC2C(O)C(O)C(O)C(O)C2O)C(N)CC1NC(=N)C(=O)O (stereo not given) | > 100 µM (inactive) | > 100 µM (inactive) | > 100 µM (inactive) | > 100 µM | > 100 µM (inactive) | > 100 µM (inactive) | > 100 µM (inactive) | > 100 µM (inactive) | > 100 µM (inactive) | > 100 µM (inactive) | > 100 µM (inactive) | > 100 µM (inactive) | > 100 µM (inactive) | > 100 µM (inactive) | > 100 µM (inactive) | > 100 µM (inactive) | > 100 µM (inactive) | > 100 µM (inactive) | > 100 µM (inactive) | > 100 µM (inactive)
3 | CCC1=C(CC2NCCc3ccccc32)CC2c3cc(OC)c(OC)cc3CCN2C1 (stereo not given) | 0.338 µM (active) | 0.343 µM (active) | 0.432 µM (active) | 0.552 µM | 0.44 µM (active) | 0.693 µM (active) | 0.359 µM (active) | 0.276 µM (active) | 0.603 µM (active) | 0.94 µM (active) | 1.3 µM (inactive) | 0.333 µM (active) | 0.392 µM (active) | 0.719 µM (active) | 1.07 µM (active) | 0.5 µM (active) | 0.384 µM (active) | 0.55 µM (active) | 1.29 µM (inactive) | 0.736 µM (active)
4 | O=C1CSC(c2ccccc2)N1c1ccc(-n2c(-c3ccccc3)nc3ccccc3c2=O)cc1 (stereo not given) | > 92.9 µM (inactive) | > 74.6 µM (inactive) | > 100 µM (inactive) | 46.9 µM | > 83.8 µM (inactive) | 34.8 µM (inactive) | 50.5 µM (inactive) | 28.1 µM (inactive) | > 92.5 µM (inactive) | > 71.3 µM (inactive) | 64.6 µM (inactive) | 33.9 µM (inactive) | 42.6 µM (inactive) | 96.8 µM (inactive) | > 100 µM (inactive) | 99.3 µM (inactive) | > 100 µM (inactive) | 59.8 µM (inactive) | 33.3 µM (inactive) | 28.4 µM (inactive)
5 | Cc1cn(C2CC(N=[N+]=[N-])C(CO)O2)c(=O)n(CCCCBr)c1=O (stereo not given) | > 100 µM (inactive) | > 100 µM (inactive) | 65.5 µM (inactive) | > 100 µM | > 100 µM (inactive) | > 100 µM (inactive) | 89.7 µM (inactive) | 95.1 µM (inactive) | > 100 µM (inactive) | 96.8 µM (inactive) | 63.8 µM (inactive) | 26.3 µM (inactive) | 50.7 µM (inactive) | > 100 µM (inactive) | > 100 µM (inactive) | 59.3 µM (inactive) | > 100 µM (inactive) | 18.8 µM (inactive) | > 100 µM (inactive) | > 100 µM (inactive)
6 | CN[C@H]1CC[C@]23C[C@]24CC[C@]2(C)[C@@H]([C@H](C)N(C)C)CC[C@@]2(C)[C@@H]4CC[C@H]3C1(C)C | 6.78 µM (inactive) | 17.4 µM (inactive) | 13.4 µM (inactive) | 10.7 µM | 16.8 µM (inactive) | 16.8 µM (inactive) | 5.32 µM (inactive) | 16.5 µM (inactive) | 17.1 µM (inactive) | 15.7 µM (inactive) | 18.5 µM (inactive) | 9.08 µM (inactive) | 12.9 µM (inactive) | 14.4 µM (inactive) | 19.1 µM (inactive) | 14.3 µM (inactive) | 15.4 µM (inactive) | 13.7 µM (inactive) | 15.8 µM (inactive) | 11.9 µM (inactive)
7 | O=C1/C(=C/c2cccc(Cl)c2)CCCc2ccccc21 | 17.8 µM (inactive) | 26.5 µM (inactive) | 17.2 µM (inactive) | 17.2 µM | 15.5 µM (inactive) | 15.4 µM (inactive) | 17.8 µM (inactive) | 15.2 µM (inactive) | 19.1 µM (inactive) | 16.1 µM (inactive) | 18.4 µM (inactive) | 18.3 µM (inactive) | 8.26 µM (inactive) | 16.8 µM (inactive) | 45.8 µM (inactive) | 18.2 µM (inactive) | 16.9 µM (inactive) | 15.8 µM (inactive) | 13.7 µM (inactive) | 16.1 µM (inactive)
8 | O=Cc1c(-c2ccccc2)nc2ccccc2c1O | 49.2 µM (inactive) | 54 µM (inactive) | 58.5 µM (inactive) | 65.2 µM | 30.1 µM (inactive) | 53.8 µM (inactive) | 42.2 µM (inactive) | 55.7 µM (inactive) | 54 µM (inactive) | 75.7 µM (inactive) | 52.1 µM (inactive) | 36.5 µM (inactive) | 34.7 µM (inactive) | 59.3 µM (inactive) | > 100 µM (inactive) | 73.8 µM (inactive) | 50.6 µM (inactive) | 74.3 µM (inactive) | 55.8 µM (inactive) | 85.7 µM (inactive)
9 | C[n+]1[n-]o/c(=N\N=O)c1-c1cc(-c2/c(=N/N=O)o[n-][n+]2C)cc(-c2/c(=N\N=O)o[n-][n+]2C)c1 | > 100 µM (inactive) | > 100 µM (inactive) | > 100 µM (inactive) | > 100 µM | > 100 µM (inactive) | > 100 µM (inactive) | > 100 µM (inactive) | > 100 µM (inactive) | > 100 µM (inactive) | > 100 µM (inactive) | > 100 µM (inactive) | > 100 µM (inactive) | > 100 µM (inactive) | > 100 µM (inactive) | > 100 µM (inactive) | > 100 µM (inactive) | > 100 µM (inactive) | > 100 µM (inactive) | > 100 µM (inactive) | > 100 µM (inactive)
10 | O=c1[nH]nc(Cc2ccccc2)n1/N=C\CC/C=N\n1c(Cc2ccccc2)n[nH]c1=O | 29.5 µM (inactive) | > 100 µM (inactive) | 53.8 µM (inactive) | 19.9 µM | 20.2 µM (inactive) | 14.3 µM (inactive) | 15.7 µM (inactive) | 31.1 µM (inactive) | 24.7 µM (inactive) | 23 µM (inactive) | 19.4 µM (inactive) | 37.4 µM (inactive) | 21.5 µM (inactive) | 23.8 µM (inactive) | 31.3 µM (inactive) | > 100 µM (inactive) | 36.3 µM (inactive) | 34 µM (inactive) | 16.8 µM (inactive) | > 100 µM (inactive)
